Results taken from the supplement of paper PMC10307832.

Experiments:
Assay in all cases: relative viability (nuclei count vs DMSO), 5 days (fraction); higher = more cells survive
PC-3 [JPC-3] = tested on: PC-3 [JPC-3]
How it was run: (§1)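 Each reported value is a median over duplicate plates. It expresses relative viability: treated-well nuclei count divided by vehicle-well nuclei count. Lung cancer cell lines in 1536-well plates were dosed by pin tool a day after seeding, alone with one drug or with a fixed anchor-drug dose plus five library-drug doses (not always all listed) in √10 steps, and nuclei were counted after 5 days.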

A-427 = tested on: A-427
How it was run: as §1

NCI-H1792 = tested on: NCI-H1792
How it was run: as §1

NCI-H522 = tested on: NCI-H522
How it was run: as §1

LC-2-ad = tested on: LC-2-ad
How it was run: as §1

HOP-62 = tested on: HOP-62
How it was run: as §1

NCI-H1734 = tested on: NCI-H1734
How it was run: as §1

HCC-78 = tested on: HCC-78
How it was run: as §1

RERF-LC-KJ = tested on: RERF-LC-KJ
How it was run: as §1

NCI-H2126 = tested on: NCI-H2126
How it was run: as §1

NCI-H358 = tested on: NCI-H358
How it was run: as §1

HCC-15 = tested on: HCC-15
How it was run: as §1

NCI-H1975 = tested on: NCI-H1975
How it was run: as §1

NCI-H1915 = tested on: NCI-H1915
How it was run: as §1

NCI-H2347 = tested on: NCI-H2347
How it was run: as §1

NCI-H1755 = tested on: NCI-H1755
How it was run: as §1

LXF-289 = tested on: LXF-289
How it was run: as §1

NCI-H647 = tested on: NCI-H647
How it was run: as §1

NCI-H2342 = tested on: NCI-H2342
How it was run: as §1

Cc1sc2c(c1C)C(c1ccc(Cl)cc1)=N[C@@H](CC(=O)OC(C)(C)C)c1nnc(C)n1-2 [JQ1] + NC(=O)Nc1cc(-c2cccc(F)c2)sc1C(=O)N[C@H]1CCCNC1 [AZD7762] (partner 0.2 µM)
relative viability (PC-3 [JPC-3]; first compound 0.04 µM): 0.709
relative viability (PC-3 [JPC-3]; first compound 0.1265 µM): 0.849
relative viability (PC-3 [JPC-3]; first compound 0.4 µM): 0.497
relative viability (PC-3 [JPC-3]; first compound 1.265 µM): 0.527
relative viability (PC-3 [JPC-3]; first compound 4 µM): 0.438
relative viability (A-427; first compound 0.04 µM): 0.749
relative viability (A-427; first compound 0.1265 µM): 0.611
relative viability (A-427; first compound 0.4 µM): 0.594
relative viability (A-427; first compound 1.265 µM): 0.516
relative viability (A-427; first compound 4 µM): 0.416
relative viability (NCI-H1792; first compound 0.04 µM): 0.62
relative viability (NCI-H1792; first compound 0.1265 µM): 0.46
relative viability (NCI-H1792; first compound 0.4 µM): 0.38
relative viability (NCI-H1792; first compound 1.265 µM): 0.14
relative viability (NCI-H1792; first compound 4 µM): 0.0872
relative viability (NCI-H522; first compound 0.04 µM): 0.974
relative viability (NCI-H522; first compound 0.1265 µM): 0.685
relative viability (NCI-H522; first compound 0.4 µM): 0.774
relative viability (NCI-H522; first compound 1.265 µM): 0.52
relative viability (NCI-H522; first compound 4 µM): 0.397
relative viability (LC-2-ad; first compound 0.04 µM): 0.793
relative viability (LC-2-ad; first compound 0.1265 µM): 0.42
relative viability (LC-2-ad; first compound 0.4 µM): 0.374
relative viability (LC-2-ad; first compound 1.265 µM): 0.249
relative viability (LC-2-ad; first compound 4 µM): 0.204
relative viability (HOP-62; first compound 0.04 µM): 0.535
relative viability (HOP-62; first compound 0.1265 µM): 0.608
relative viability (HOP-62; first compound 0.4 µM): 0.37
relative viability (HOP-62; first compound 1.265 µM): 0.103
relative viability (HOP-62; first compound 4 µM): 0.107
relative viability (NCI-H1734; first compound 0.04 µM): 0.544
relative viability (NCI-H1734; first compound 0.1265 µM): 0.53
relative viability (NCI-H1734; first compound 0.4 µM): 0.47
relative viability (NCI-H1734; first compound 1.265 µM): 0.281
relative viability (NCI-H1734; first compound 4 µM): 0.273
relative viability (HCC-78; first compound 0.04 µM): 0.762
relative viability (HCC-78; first compound 0.1265 µM): 0.574
relative viability (HCC-78; first compound 0.4 µM): 0.559
relative viability (HCC-78; first compound 1.265 µM): 0.421
relative viability (HCC-78; first compound 4 µM): 0.208
relative viability (RERF-LC-KJ; first compound 0.04 µM): 1.02
relative viability (RERF-LC-KJ; first compound 0.1265 µM): 0.803
relative viability (RERF-LC-KJ; first compound 0.4 µM): 0.976
relative viability (RERF-LC-KJ; first compound 1.265 µM): 0.816
relative viability (RERF-LC-KJ; first compound 4 µM): 0.358
relative viability (NCI-H2126; first compound 0.04 µM): 1.08
relative viability (NCI-H2126; first compound 0.1265 µM): 1.01
relative viability (NCI-H2126; first compound 0.4 µM): 1.04
relative viability (NCI-H2126; first compound 1.265 µM): 0.956
relative viability (NCI-H2126; first compound 4 µM): 0.838
relative viability (NCI-H358; first compound 0.04 µM): 0.524
relative viability (NCI-H358; first compound 0.1265 µM): 0.565
relative viability (NCI-H358; first compound 0.4 µM): 0.538
relative viability (NCI-H358; first compound 1.265 µM): 0.344
relative viability (NCI-H358; first compound 4 µM): 0.232
relative viability (HCC-15; first compound 0.04 µM): 1.32
relative viability (HCC-15; first compound 0.1265 µM): 0.924
relative viability (HCC-15; first compound 0.4 µM): 0.978
relative viability (HCC-15; first compound 1.265 µM): 0.512
relative viability (HCC-15; first compound 4 µM): 0.742
relative viability (NCI-H1975; first compound 0.04 µM): 0.678
relative viability (NCI-H1975; first compound 0.1265 µM): 0.412
relative viability (NCI-H1975; first compound 0.4 µM): 0.767
relative viability (NCI-H1975; first compound 1.265 µM): 0.526
relative viability (NCI-H1975; first compound 4 µM): 0.41
relative viability (NCI-H1915; first compound 0.04 µM): 0.729
relative viability (NCI-H1915; first compound 0.4 µM): 0.653
relative viability (NCI-H1915; first compound 1.265 µM): 0.437
relative viability (NCI-H1915; first compound 4 µM): 0.241
relative viability (NCI-H2347; first compound 0.04 µM): 0.811
relative viability (NCI-H2347; first compound 0.1265 µM): 0.917
relative viability (NCI-H2347; first compound 0.4 µM): 0.724
relative viability (NCI-H2347; first compound 1.265 µM): 0.445
relative viability (NCI-H2347; first compound 4 µM): 0.357
relative viability (NCI-H1755; first compound 0.04 µM): 0.533
relative viability (NCI-H1755; first compound 0.1265 µM): 0.387
relative viability (NCI-H1755; first compound 0.4 µM): 0.565
relative viability (NCI-H1755; first compound 1.265 µM): 0.507
relative viability (NCI-H1755; first compound 4 µM): 0.433
relative viability (LXF-289; first compound 0.04 µM): 1.12
relative viability (LXF-289; first compound 0.1265 µM): 1.07
relative viability (LXF-289; first compound 0.4 µM): 0.851
relative viability (LXF-289; first compound 1.265 µM): 1.02
relative viability (LXF-289; first compound 4 µM): 0.512
relative viability (NCI-H647; first compound 0.04 µM): 0.472
relative viability (NCI-H647; first compound 0.1265 µM): 0.293
relative viability (NCI-H647; first compound 0.4 µM): 0.25
relative viability (NCI-H647; first compound 1.265 µM): 0.103
relative viability (NCI-H647; first compound 4 µM): 0.0446
relative viability (NCI-H2342; first compound 0.04 µM): 0.544
relative viability (NCI-H2342; first compound 0.1265 µM): 0.475
relative viability (NCI-H2342; first compound 0.4 µM): 0.588
relative viability (NCI-H2342; first compound 1.265 µM): 0.465
relative viability (NCI-H2342; first compound 4 µM): 0.4
